# Tests used:
# Type in all cases: cell-based, human
# [1] = test system: BxPC3 [Ca2+]i; assay: Intracellular calcium, fluo-4 epifluorescence, BxPC3; settings: for alterations in [Ca2+]i: BxPC3, single treatment, monitored for 500 seconds, 0.02 ng/ml TGFβ1, 10 nM S100A8, 10 nM S100A9
# Experimental: BxPC3 and MiaPaCa2 cells, seeded (80 × 10^3 cells) on coverslips that had been inserted within each well of six well culture plates, were kept in their respective complete media for 24 hours. Coverslips were then incubated for 10 min at 37°C with 3 μM fluo-4 AM (Invitrogen S.R.L.) in an imaging buffer containing 137 mM NaCl, 5 mM KCl, 1.2 mM MgCl2, 0.44 mM KH2PO4, 4.2 mM NaHCO3, 5 mM glucose, and 20 mM HEPES pH 7.4. The cells were carefully washed with the imaging buffer after its removal. Calcium oscillations were then analyzed by means of an inverted epifluorescence microscope equipped with a top stage incubator (Tokai Hit INU-F1, Tokai Hit, Shizuoka-Ken, Japan) in order to keep cells in the optimal culturing environment. As an illumination source, we used a mercury arc discharge lamp and selected excitation and emission wavelengths with an FITC filter cube (EX 465–495 DM505 EM 515–555 nm). Use was made of an 60X1.45NA objective (Nikon Instruments S.P.A., Firenze, Italy) and, in order to minimize phototoxicity and photobleaching, a back-thinned electron multiplied CCD camera C9100-13 Imagem (Hamamatsu Photonics Italia S.R.L., Milano, Italy). After the first minute, required to achieve optimal culture conditions, intracellular fluorescence was continuously monitored (3 frames/sec) for 12 min. In all experiments, […], the cells were maintained in imaging buffer for the first 2 minutes, after which they were stimulated with 10 nM S100A8, 10 nM S100A9 and 50 nM NT-S100A8, alone or in combination with 0.02 ng/ml TGFβ1. For all stimuli, additions were made directly to the microscope chamber without interrupting the recording. The fluorescence signal was quantified by measuring the mean pixel value of a manually selected cellular area for each frame of the image stack using the HCimage system (Hamamatsu Photonics Italia S.R.L.). For all the experimental conditions, at least 3 independents sets of experiments were performed.
# [2] = test system: BxPC3 EMT gene mRNA; assay: Real time PCR for EMT markers, BxPC3; settings: BxPC3, 72 hours
# Experimental: BxPC3 and MiaPaCa2 cells (300 × 10^3) were seeded in six well dishes for 24 hours in their complete media. Cells remained non-stimulated (negative control) or were stimulated with 10 nM S100A8, 10 nM S100A9 and 50 nM NT-S100A8, alone or combined with 0.02 ng/ml TGFβ1, for 72 hours. Following stimulation, the cells were collected with 0.25% trypsin (1 mM EDTA) and centrifuged for 10 min at 4,000 rpm. Total RNA was extracted from cells using the High Pure RNA isolation kit (Roche, Monza, Italy), and reverse transcription was performed using 200 ng of total RNA, M-MLV Transcriptase and 250 μM random primers (Invitrogen S.R.L.). Quantitative Real-Time PCR analysis for CDH1 (E-cadherin), CDH2 (N-cadherin), SNAI1 (Snail), SNAI2 (Slug), TWIST1 (Twist), ZEB1, ZEB2, and B2M (β2-micro-globulin) were performed with the LightCycler 480 Real-Time System (Roche Diagnostics, Mannheim, Germany). The primer sequences (shown in Additional file 10: Table S2) and the respective probes were designed using the Universal ProbeLibrary (Roche) and ProbeFinder software (http://www.roche-applied-science.com/). Experimental procedures followed the standard protocol using the LightCycler 480 Probes Master (Roche). β2-microglobulin (B2M) was included as a housekeeping gene control. […]
# [3] = test system: BxPC3 N-Cadherin; assay: N-cadherin immunocytochemistry, BxPC3; settings: vs untreated cells
# Experimental: In order to investigate immunocytochemical reactions, control and stimulated cells were formalin-fixed and paraffin embedded before obtaining […] sections from each cell block. All immunocytochemical staining was performed automatically (Bondt—maX, Menarini, Florence, Italy) with primary antibodies: E-cadherin (DakoCytomation, Glostrup, Denmark) (1:200), N-cadherin (DakoCytomation) (1:100), Twist1 (Novocastra, Newcastle-upon-Tyne, UK)(1:600). Sections were then lightly counterstained with hematoxylin. E-cadherin and N-cadherin immunoreactions were defined as immunoreactions detectable in the membrane while Twist was defined as a positive nuclear staining. At least three independent sets of experiments were performed in each experimental condition.
# [4] = test system: BxPC3-SMAD4+; assay: XTT cell viability assay, BxPC3-SMAD4+; settings: BxPC3-SMAD4+ vs BxPC3, XTT, 48 hours; TGFβ1 0.02 ng/ml, NT-S100A8 50 nM
# Experimental: Supplementary file 1478-811X-12-20-S7.tiff: Additional file 7: Figure S6 XTT cell viability assay results. BxPC3 (empty columns) and BxPC3-SMAD4+ (filled columns) were seeded in a 96 well culture plate (2000 cells/well) and cultured for 48 hours, A: in absence (control) or in presence of TGFβ1 (0.02 ng/ml) and NT-S100A8 (50 nM), alone or combined; B: in absence (control) or in presence of TGFβ1 (0.02 ng/ml) and S100A8 (10 nM) and S100A9 (10 nM), alone or combined. In each experimental set, the median value of Abs450nm of untreated cells was calculated and used as reference. All the other values were expressed as percentage to the reference. Columns and bars show mean and standard errors, respectivelty. Student’s t test: * = p<0.05. Click here for file
# BxPC3, Capan1, MiaPaCa2, Panc1 and BxPC3-SMAD4+ cells were seeded (2000 cells per well) in 96-well cell culture plates and cultured in complete media for 24 hours. […] Cell growth was assessed after 48 hours using the XTT cell viability test (Roche, Milano, Italy). […] The results were expressed as percentage with respect to the median Abs450nm of control cells run in the same experimental set.
Substance,alterations in [Ca2+]i [1],"Twist expression ([2]; 10 nM, levels comparable with those of TGFβ1, Kruskal-Wallis p = 0.018)",N-Cadherin membranous immunostaining [3],cell proliferation response associated with Smad4 expression [4],"effect of TGFβ1 on the induced [Ca2+]i oscillations ([1]; BxPC3, combination with 0.02 ng/ml TGFβ1)","Twist median fold increase ([2]; 0.02 ng/ml TGFβ1, RT-PCR, with respect to control cells)"
S100A8: inflammatory calcium binding protein S100A8 (ProSpec-Tany TechnoGene),did not determine evident alterations in [Ca^2+]i,significantly increased,less marked than in control cells,–,–,–
"NT-S100A8: 14 N-terminal aminoacid peptide of S100A8, isolated from PDAC tissues (MLTELEKALNSIID; UniProt P05109 1-14, looked up, fragment)",–,–,less marked than in control cells,positive cell proliferation response,synergized and accelerated by TGFβ1,–
"S100A9: inflammatory calcium binding protein S100A9, S100A8 binding partner",did not determine evident alterations in [Ca^2+]i,–,less marked than in control cells,–,–,–
TGFβ1: transforming growth factor beta 1 (ProSpec-Tany TechnoGene),did not determine evident alterations in [Ca^2+]i,–,less marked than in control cells,positive cell proliferation response,–,6.32 fold

# — paper PMC4108065, “Inflammation and pancreatic cancer: molecular and functional interactions between S100A8, S100A9, NT-S100A8 and TGFβ1” (Cell Communication and Signaling : CCS, 2014)
